What was measured:
[1] = molecular target: T1, Norepinephrine transporter (Rattus norvegicus, UniProt Q9WTR4); experiment: Displacement of [3H]NE from Norepinephrine transporter of rat brain
[2] = molecular target: T2, Sodium-dependent dopamine transporter (Rattus norvegicus, UniProt P23977); experiment: Inhibition of high affinity uptake of [3H]DA using rat nerve endings obtained from brain regions enriched in DAT.
[3] = molecular target: T2, Sodium-dependent dopamine transporter; experiment: Displacement of [3H][…] from dopamine transporter (DAT) of rat striatal membrane
[4] = molecular target: T3, Sodium-dependent serotonin transporter (Rattus norvegicus, UniProt P31652); experiment: Displacement of [3H]5-HT from serotonin transporter of rat brain
[5] = molecular target: T3, Sodium-dependent serotonin transporter; experiment: Evaluated for its ability to inhibit high affinity uptake of [3H]-5-HT using rat nerve endings obtained from brain regions enriched in serotonin transporter (5HTT); type: functional
[6] = molecular target: T1, Norepinephrine transporter; experiment: Evaluated for its ability to inhibit high affinity uptake of [3H]NE using rat nerve endings obtained from brain regions enriched in norepinephrine transporter (NET); type: functional
[7] = molecular target: T1, Norepinephrine transporter; experiment: Evaluated for ability to inhibit high affinity uptake of [3H]-NE using rat nerve endings obtained from brain regions enriched in Norepinephrine transporter; type: functional
[8] = molecular target: T3, Sodium-dependent serotonin transporter; experiment: Evaluated for ability to inhibit high affinity uptake of [3H]5-HT using rat nerve endings obtained from brain regions enriched in serotonin transporter (5HTT); type: functional
[9] = molecular target: T3, Sodium-dependent serotonin transporter; experiment: Inhibitory concentration binding to Serotonin transporter using 0.5 nM […]
[10] = molecular target: T2, Sodium-dependent dopamine transporter; experiment: Inhibitory concentration binding to dopamine transporter using 0.5 nM [3H]WIN-35428
[11] = molecular target: T1, Norepinephrine transporter; experiment: (§1) Inhibitory concentration binding to Norepinephrine transporter using 0.2 nM […]; type: functional
[12] = molecular target: T2, Sodium-dependent dopamine transporter; experiment: Inhibitory concentration binding to Dopamine transporter using 0.5 nM [3H]WIN-35428
[13] = molecular target: T1, Norepinephrine transporter; experiment: as §1

T3 sequence (P31652 whole entry): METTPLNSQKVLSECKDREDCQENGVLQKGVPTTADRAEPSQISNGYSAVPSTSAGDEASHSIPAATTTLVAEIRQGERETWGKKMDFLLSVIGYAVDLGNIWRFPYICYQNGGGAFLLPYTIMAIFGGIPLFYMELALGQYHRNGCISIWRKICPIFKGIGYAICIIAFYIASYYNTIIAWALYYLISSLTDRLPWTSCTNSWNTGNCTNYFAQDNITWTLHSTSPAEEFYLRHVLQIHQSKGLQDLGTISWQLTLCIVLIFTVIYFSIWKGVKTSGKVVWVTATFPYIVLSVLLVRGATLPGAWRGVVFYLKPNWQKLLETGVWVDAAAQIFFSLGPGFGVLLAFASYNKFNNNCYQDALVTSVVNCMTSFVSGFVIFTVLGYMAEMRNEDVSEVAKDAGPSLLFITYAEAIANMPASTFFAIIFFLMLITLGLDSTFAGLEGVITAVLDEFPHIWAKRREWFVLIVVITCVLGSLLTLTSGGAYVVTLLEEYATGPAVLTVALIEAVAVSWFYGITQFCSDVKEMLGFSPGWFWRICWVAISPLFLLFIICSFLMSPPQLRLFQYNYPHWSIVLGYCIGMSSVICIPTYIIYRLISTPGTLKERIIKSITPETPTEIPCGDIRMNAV
T2 sequence (P23977 whole entry): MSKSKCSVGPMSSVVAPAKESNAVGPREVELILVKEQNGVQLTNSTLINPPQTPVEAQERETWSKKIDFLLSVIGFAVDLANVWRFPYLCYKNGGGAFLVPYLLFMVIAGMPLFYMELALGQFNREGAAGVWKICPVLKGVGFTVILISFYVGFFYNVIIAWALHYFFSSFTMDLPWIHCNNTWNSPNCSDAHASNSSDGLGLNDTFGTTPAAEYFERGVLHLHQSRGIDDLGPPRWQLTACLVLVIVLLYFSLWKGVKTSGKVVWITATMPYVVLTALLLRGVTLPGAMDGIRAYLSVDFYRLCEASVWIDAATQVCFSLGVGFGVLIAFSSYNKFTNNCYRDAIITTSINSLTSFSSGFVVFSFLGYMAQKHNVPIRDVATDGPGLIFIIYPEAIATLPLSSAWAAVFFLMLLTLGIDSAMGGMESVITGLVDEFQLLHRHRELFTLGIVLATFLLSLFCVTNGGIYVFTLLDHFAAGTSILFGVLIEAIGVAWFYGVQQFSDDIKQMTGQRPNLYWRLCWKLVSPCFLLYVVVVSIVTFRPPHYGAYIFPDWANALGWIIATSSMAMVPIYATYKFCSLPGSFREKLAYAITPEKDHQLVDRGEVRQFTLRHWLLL
T1 sequence (Q9WTR4 whole entry): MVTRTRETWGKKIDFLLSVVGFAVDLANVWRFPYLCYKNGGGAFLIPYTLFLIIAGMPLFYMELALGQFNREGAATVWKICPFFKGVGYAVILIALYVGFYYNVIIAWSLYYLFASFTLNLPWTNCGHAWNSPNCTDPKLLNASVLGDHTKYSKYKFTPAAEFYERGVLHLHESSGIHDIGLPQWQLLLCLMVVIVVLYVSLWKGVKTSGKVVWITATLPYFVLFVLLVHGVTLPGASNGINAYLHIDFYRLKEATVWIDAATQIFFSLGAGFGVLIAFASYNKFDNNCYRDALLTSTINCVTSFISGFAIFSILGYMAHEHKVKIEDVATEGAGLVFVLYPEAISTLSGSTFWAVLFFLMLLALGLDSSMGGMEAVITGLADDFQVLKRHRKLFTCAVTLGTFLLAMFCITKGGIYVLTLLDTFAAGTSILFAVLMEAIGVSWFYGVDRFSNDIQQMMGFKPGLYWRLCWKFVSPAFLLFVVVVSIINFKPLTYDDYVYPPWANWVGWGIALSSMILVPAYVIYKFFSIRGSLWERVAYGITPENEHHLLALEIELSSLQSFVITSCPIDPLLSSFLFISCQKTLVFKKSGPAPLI

CC(C)c1noc([C@H]2CN(C)CC[C@@H]2c2ccc(Cl)cc2)n1
Ki [1]: 778 nM | Ki [2]: 391 nM | Ki [3]: 494 nM | Ki [4]: 2920 nM

COc1ccc(-c2noc([C@H]3CN(C)CC[C@@H]3c3ccc(Cl)cc3)n2)cc1
Ki [1]: > 3000 nM | Ki [2]: > 3000 nM | Ki [3]: > 3000 nM | Ki [4]: > 3000 nM

Cc1noc([C@@H]2CN(C)CC[C@H]2c2ccc(Cl)cc2)n1
Ki [2]: 955 nM | IC50 [5]: > 3000 nM | IC50 [6]: > 1000 nM

COC(=O)[C@H]1CN(C)CC[C@@H]1c1ccc(Cl)cc1
Ki [1]: 252 nM | Ki [3]: 315 nM | Ki [4]: 8490 nM

COC(=O)[C@@H]1CN(C)CC[C@H]1c1ccc(Cl)cc1
Ki [1]: 396 nM | Ki [2]: 2930 nM | Ki [3]: 2000 nM | Ki [4]: 930 nM

CN1CC[C@@H](c2ccc(Cl)cc2)[C@H](c2nc(-c3ccccc3)no2)C1
Ki [2]: 1710 nM | IC50 [7]: > 3000 nM | IC50 [8]: > 3000 nM

CC(C)c1noc([C@@H]2CN(C)CC[C@H]2c2ccc(Cl)cc2)n1
Ki [1]: 2680 nM | Ki [2]: 3590 nM | Ki [3]: 2900 nM | Ki [4]: 1220 nM

CN1CC[C@@H](c2ccc(Cl)cc2)[C@H](c2nc(-c3ccc(Br)cc3)no2)C1
Ki [1]: > 3000 nM | Ki [2]: > 3000 nM | Ki [3]: > 3000 nM | Ki [4]: > 3000 nM

CN1CC[C@@H](c2ccc(Cl)cc2)[C@H](c2nc(-c3ccc4c(c3)OCO4)no2)C1
Ki [1]: > 3000 nM | Ki [2]: > 3000 nM | Ki [3]: > 3000 nM | Ki [4]: > 3000 nM

COc1ccc(-c2noc([C@@H]3CN(C)CC[C@H]3c3ccc(Cl)cc3)n2)cc1
Ki [1]: > 3000 nM | Ki [2]: > 3000 nM | Ki [3]: > 3000 nM | Ki [4]: > 3000 nM

CN1CC[C@H](c2ccc(Cl)cc2)[C@@H](c2nc(-c3ccc4c(c3)OCO4)no2)C1
Ki [1]: > 3000 nM | Ki [2]: > 3000 nM | Ki [3]: > 3000 nM | Ki [4]: > 3000 nM

CN1CC[C@H](c2ccc(Cl)cc2)[C@@H](c2nc(-c3ccc(Br)cc3)no2)C1
Ki [1]: > 3000 nM | Ki [2]: > 3000 nM | Ki [3]: > 3000 nM | Ki [4]: > 3000 nM

CN1CC[C@@H](c2ccc(Cl)cc2)[C@H](c2nc(-c3ccc(Cl)cc3)no2)C1
Ki [1]: > 3000 nM | Ki [2]: > 3000 nM | Ki [3]: > 3000 nM | Ki [4]: > 3000 nM

CN1CC[C@H](c2ccc(Cl)cc2)[C@@H](c2nc(-c3ccc(Cl)cc3)no2)C1
IC50 [9]: 404 nM | IC50 [10]: 4.06 nM | Ki [1]: > 3000 nM | Ki [2]: > 3000 nM | IC50 [11]: 4070 nM | Ki [3]: > 3000 nM | Ki [4]: > 3000 nM

CN1CC[C@H](c2ccc(Cl)cc2)[C@@H](c2nc(-c3ccccc3)no2)C1
Ki [2]: 497 nM | IC50 [7]: > 10000 nM | IC50 [8]: > 3000 nM

Cc1noc([C@H]2CN(C)CC[C@@H]2c2ccc(Cl)cc2)n1
IC50 [9]: 2580 nM | IC50 [12]: 4.05 nM | Ki [1]: 256 nM | Ki [2]: 187 nM | Ki [3]: 201 nM | Ki [4]: 5960 nM | IC50 [13]: 363 nM

From ChEMBL document CHEMBL1133898 (Bioorg Med Chem Lett, 2001)
